Usually IC50 stands for the concentration needed to halve the response being measured. The Kp is tissue or fluid exposure divided by exposure in the circulation.

Here are results for two molecules from ChEMBL document CHEMBL1156067, “Pyrimidine-based antagonists of h-MCH-R1 derived from ATC0175: in vitro profiling and in vivo evaluation” (Bioorg Med Chem Lett, 2009).

Activity calls are given as the source filed them. The calls are words filed in the database; no cut-off is given here.

The test system of data set [1] is Rattus norvegicus. Briefly: Reduction in body weight in diet-induced obese Wistar rat chronic feeding model at 10 mg/kg, po once daily after 28 days relative to control. Type of data set: functional. Set-up: scale not given: the % may be the effect or the level left.
Data set [2] relates to Rattus norvegicus. Briefly: Reduction in body weight in diet-induced obese Wistar rat chronic feeding model at 10 mg/kg, po once daily up to 28 days measured after 2 weeks of recovery period. Type of data set: functional, organism-based. More on the design: dose 10 mg/kg.
For data set [3], the system named is Rattus norvegicus. Put plainly: Toxicity in rat at 100 mg/kg, po once daily after 14 days. The settings on record: in vivo, 336 h.
In data set [4] the test system is Rattus norvegicus. Put plainly: Reduction in food intake in diet-induced obese Wistar rat chronic feeding model at 5 mg/kg, po once daily after 28 days. Type of data set: functional, organism-based. Set-up: dose 5 mg/kg.
Data set [5] concerns Rattus norvegicus. Put plainly: Reduction in body weight in diet-induced obese Wistar rat chronic feeding model at 15 mg/kg, po once daily after 14 days relative to control. It is filed as functional. More on the design: scale not given: the % may be the effect or the level left.
Data set [6] concerns Rattus norvegicus. Briefly: Reduction in food intake in diet-induced obese Wistar rat chronic feeding model at 10 mg/kg, po once daily after 2 days. Set-up: dose 10 mg/kg. It is filed as functional, organism-based.
Data set [7] deals with Rattus norvegicus. Briefly: Reduction in body weight in diet-induced obese Wistar rat chronic feeding model at 5 mg/kg, po once daily after 28 days relative to control. Type of data set: functional. Set-up: scale not given: the % may be the effect or the level left.
A short description of data set [8]: Plasma concentration in Sprague-Dawley rat at 10 mg/kg, po after 2 hrs. Type of data set: ADME, organism-based. More on the design: dose 10 mg/kg, route oral.
Data set [9] can be described thus: Drug level in Sprague-Dawley rat brain at 10 mg/kg, po after 2 hrs. It is filed as ADME, organism-based. Set-up: dose 10 mg/kg, route oral.
Data set [10] deals with Rattus norvegicus. Put plainly: Reduction in body weight in diet-induced obese Wistar rat chronic feeding model at 1 mg/kg, po once daily after 28 days. Type of data set: functional, organism-based. More on the design: dose 1 mg/kg.
Data set [11] has as its target T1, 5-hydroxytryptamine receptor 2B (Homo sapiens, UniProt P41595). Briefly: Displacement of [3H]rauwolsine from human 5HT2B receptor. (In general: Displacement assays read how much labelled ligand stays bound in the presence of the test substance.)
Data set [12] relates to Rattus norvegicus. Briefly: Reduction in body weight in diet-induced obese Wistar rat chronic feeding model at 15 mg/kg, po once daily up to 14 days measured after recovery period. It is filed as functional, organism-based. More on the design: dose 15 mg/kg.
Data set [13] concerns Rattus norvegicus. Briefly: Reduction in food intake in diet-induced obese Wistar rat chronic feeding model at 1 mg/kg, po once daily after 28 days. It is filed as functional, organism-based. Set-up: dose 1 mg/kg.
Data set [14] concerns the target Melanin-concentrating hormone receptor 1 (Homo sapiens, UniProt Q99705). Briefly: Antagonist activity at CART form of human MCH1 receptor expressed in HEK293 cells coexpressing Galphaq assessed as inhibition of MCH-induced intracellular calcium level by FLIPR assay. It is filed as functional, cell-based.
Data set [15] concerns the target T2, Alpha-1A adrenergic receptor (Homo sapiens, UniProt P35348).
T2 sequence (P35348 whole entry): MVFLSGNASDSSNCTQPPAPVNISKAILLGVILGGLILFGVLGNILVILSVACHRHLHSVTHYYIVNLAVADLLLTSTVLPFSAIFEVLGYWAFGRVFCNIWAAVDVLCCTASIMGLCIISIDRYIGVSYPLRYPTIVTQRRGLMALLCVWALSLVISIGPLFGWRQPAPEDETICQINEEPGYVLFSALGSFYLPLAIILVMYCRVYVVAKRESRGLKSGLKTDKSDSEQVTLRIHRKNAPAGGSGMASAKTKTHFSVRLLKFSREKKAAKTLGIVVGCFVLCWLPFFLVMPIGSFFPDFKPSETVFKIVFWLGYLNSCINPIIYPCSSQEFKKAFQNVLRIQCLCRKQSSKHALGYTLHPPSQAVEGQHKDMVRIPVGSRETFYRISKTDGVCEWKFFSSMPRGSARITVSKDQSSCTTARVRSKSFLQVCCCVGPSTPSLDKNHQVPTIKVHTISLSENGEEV
Put plainly: Displacement of [3H]prazosin from human adrenergic alpha1A receptor.

Another data set deals with Histamine H1 receptor (Homo sapiens, UniProt P35367). Put plainly: Displacement of [3H]pyrilamine from human histamine H1 receptor.
Data set [16] concerns Rattus norvegicus. Put plainly: Reduction in food intake in diet-induced obese Wistar rat chronic feeding model at 15 mg/kg, po once daily after 3 days. Type of data set: functional, organism-based. Set-up: dose 15 mg/kg.
Data set [17] can be described thus: Drug level in Sprague-Dawley rat brain at 10 mg/kg, po after 4 hrs. Type of data set: ADME, organism-based. Set-up: dose 10 mg/kg, route oral.
Data set [18] has as its system Rattus norvegicus. Briefly: Reduction in food intake in diet-induced obese Wistar rat chronic feeding model at 10 mg/kg, po once daily up to 28 days measured after 2 weeks of recovery period. Set-up: dose 10 mg/kg. It is filed as functional, organism-based.
In data set [19] the test system is Rattus norvegicus. Put plainly: Reduction in food intake in diet-induced obese Wistar rat chronic feeding model at 15 mg/kg, po once daily up to 14 days measured after recovery period. Type of data set: functional, organism-based. More on the design: dose 15 mg/kg.
The target of data set [20] is T3, 5-hydroxytryptamine receptor 1A (Homo sapiens, UniProt P08908).
T3 sequence (P08908 whole entry): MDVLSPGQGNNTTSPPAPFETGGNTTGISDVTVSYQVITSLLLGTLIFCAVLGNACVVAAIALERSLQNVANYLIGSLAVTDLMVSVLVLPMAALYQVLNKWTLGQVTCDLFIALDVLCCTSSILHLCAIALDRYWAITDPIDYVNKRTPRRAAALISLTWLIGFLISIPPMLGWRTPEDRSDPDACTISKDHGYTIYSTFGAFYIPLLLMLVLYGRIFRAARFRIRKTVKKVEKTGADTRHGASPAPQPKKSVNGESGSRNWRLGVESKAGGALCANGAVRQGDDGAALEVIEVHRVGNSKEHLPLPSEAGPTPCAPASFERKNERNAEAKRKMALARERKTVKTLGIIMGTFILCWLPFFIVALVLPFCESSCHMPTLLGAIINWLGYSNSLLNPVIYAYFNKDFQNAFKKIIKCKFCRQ
Briefly: Inhibition of human 5HT1A.

For data set [21], the target named is T4, Alpha-2A adrenergic receptor (Homo sapiens, UniProt P08913).
T4 sequence (P08913 whole entry): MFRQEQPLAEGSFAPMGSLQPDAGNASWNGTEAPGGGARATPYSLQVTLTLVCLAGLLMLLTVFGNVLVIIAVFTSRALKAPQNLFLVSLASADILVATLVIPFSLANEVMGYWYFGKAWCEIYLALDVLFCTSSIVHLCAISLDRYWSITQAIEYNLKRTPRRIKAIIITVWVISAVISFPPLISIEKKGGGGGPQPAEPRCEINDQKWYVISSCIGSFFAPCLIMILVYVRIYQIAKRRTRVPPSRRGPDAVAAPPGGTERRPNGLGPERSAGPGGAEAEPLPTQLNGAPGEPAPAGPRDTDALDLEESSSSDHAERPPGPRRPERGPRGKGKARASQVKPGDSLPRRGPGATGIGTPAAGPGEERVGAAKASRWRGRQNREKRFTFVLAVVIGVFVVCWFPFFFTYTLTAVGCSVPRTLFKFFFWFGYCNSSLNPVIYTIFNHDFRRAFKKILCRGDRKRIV
Briefly: Displacement of [3H]MK-912 from human adrenergic alpha2A receptor.

Data set [22] can be described thus: Plasma concentration in Sprague-Dawley rat at 10 mg/kg, po after 4 hrs. Type of data set: ADME, organism-based. Set-up: dose 10 mg/kg, route oral.
In data set [23] the target is T1, 5-hydroxytryptamine receptor 2B. Put plainly: Displacement of [125I]LSD from human 5HT2B receptor.
Data set [24] is described as follows: Ratio of drug level in brain to plasma in po dosed rat. It is filed as ADME, organism-based.

T1 sequence (P41595 whole entry): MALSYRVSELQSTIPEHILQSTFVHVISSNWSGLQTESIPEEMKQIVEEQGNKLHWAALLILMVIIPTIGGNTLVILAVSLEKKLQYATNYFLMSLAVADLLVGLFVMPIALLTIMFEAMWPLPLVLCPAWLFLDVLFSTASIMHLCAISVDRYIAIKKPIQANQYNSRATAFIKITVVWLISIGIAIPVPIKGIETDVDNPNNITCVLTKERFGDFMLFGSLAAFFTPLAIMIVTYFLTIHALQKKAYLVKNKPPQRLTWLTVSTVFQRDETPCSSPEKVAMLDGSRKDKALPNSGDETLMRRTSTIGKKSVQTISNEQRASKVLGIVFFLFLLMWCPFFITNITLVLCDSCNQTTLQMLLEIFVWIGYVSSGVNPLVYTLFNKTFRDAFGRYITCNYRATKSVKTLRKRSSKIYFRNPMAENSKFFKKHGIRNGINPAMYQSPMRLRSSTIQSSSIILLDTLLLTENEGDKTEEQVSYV
Chain of Histamine H1 receptor (P35367 whole entry): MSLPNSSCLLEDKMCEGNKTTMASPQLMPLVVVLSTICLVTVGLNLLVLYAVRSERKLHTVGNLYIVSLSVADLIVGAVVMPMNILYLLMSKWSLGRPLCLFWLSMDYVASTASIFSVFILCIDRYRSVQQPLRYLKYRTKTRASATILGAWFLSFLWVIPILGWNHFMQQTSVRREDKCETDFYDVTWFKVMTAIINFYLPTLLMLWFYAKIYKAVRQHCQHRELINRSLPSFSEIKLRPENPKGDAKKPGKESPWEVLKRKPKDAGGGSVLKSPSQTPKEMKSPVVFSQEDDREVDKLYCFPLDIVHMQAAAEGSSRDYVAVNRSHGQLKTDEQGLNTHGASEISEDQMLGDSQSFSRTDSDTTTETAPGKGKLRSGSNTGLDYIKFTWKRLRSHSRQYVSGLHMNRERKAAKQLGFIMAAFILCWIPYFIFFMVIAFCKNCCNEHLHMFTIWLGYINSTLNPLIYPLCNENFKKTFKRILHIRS
Chain of Melanin-concentrating hormone receptor 1 (Q99705 whole entry, looked up): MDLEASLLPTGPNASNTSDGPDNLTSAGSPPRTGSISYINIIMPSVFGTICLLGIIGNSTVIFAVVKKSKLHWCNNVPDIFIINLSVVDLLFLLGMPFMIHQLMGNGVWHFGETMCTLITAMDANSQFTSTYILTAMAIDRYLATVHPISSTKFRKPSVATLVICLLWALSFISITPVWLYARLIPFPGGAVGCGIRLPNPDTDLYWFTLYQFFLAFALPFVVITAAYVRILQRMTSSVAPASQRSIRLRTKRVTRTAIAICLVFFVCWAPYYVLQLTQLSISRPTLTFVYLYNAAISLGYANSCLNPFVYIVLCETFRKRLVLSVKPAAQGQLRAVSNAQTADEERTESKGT

On to `Cc1cnc(N[C@H]2CC[C@@H](CNC(=O)c3cc(C(F)(F)F)cc(C(F)(F)F)c3)CC2)nc1N(C)C`, for which the Activity is recorded as 17% with Rattus norvegicus [1], “Non-toxic” with Rattus norvegicus [3], above 15% in the data set on Rattus norvegicus [5] and -5.4% in the data set on Rattus norvegicus [7]. The outcome in the data set on Rattus norvegicus [2], with Rattus norvegicus [4], with Rattus norvegicus [10], in the data set on Rattus norvegicus [12], in the data set with Rattus norvegicus [13] and in the data set on Rattus norvegicus [18] was inactive. The outcome in the data set with Rattus norvegicus [19] was inactive. In addition, the result in the data set on Rattus norvegicus [6] and with Rattus norvegicus [16] was Active. The concentration at 2 h in data set [8] amounted to 50 ng/mL; in data set [9], 9 ng/g. The concentration for half-maximal inhibition (IC50) was 3100 nM in data set [11]; 5 nM in data set [14]; 3200 nM in data set [15]; above 10000 nM at Histamine H1 receptor; 4800 nM in data set [20]; 310 nM in [21]. The figures for the concentration at 4 h in data set [17] and in data set [22] were 10 ng/g and 63 ng/mL, respectively.
For `CN(C)c1nc(N[C@H]2CC[C@@H](NC(=O)c3ccc(F)c(F)c3)CC2)nc2ccccc12`, the half-inhibitory concentration (IC50) in [23] was found to be 9.66 nM; in [11], 150 nM; in data set [15] it was 300 nM; at Histamine H1 receptor, 150 nM; in data set [20] it was 16.9 nM; in [21] it was 104 nM. Also, the concentration at 2 h in [8] worked out at 109 ng/mL; in data set [9] it was 55 ng/g. In addition, the concentration at 4 h in data set [17] amounted to 70 ng/g; in [22], 101 ng/mL. Also, the Kp in data set [24] stood at 0.5.
